Test results published in publication PMC10913730, “Antimicrobial activity of a natural compound and analogs against multi-drug-resistant Gram-positive pathogens” (Microbiology Spectrum, 2024).
Values after ≈ are worked out from the molar mass of the structure shown. Like-named read-outs stand apart in the source and are kept apart here.

Key:
[1] = system: MRSA isolates; assay: MIC/MBC, CLSI broth microdilution, MRSA isolates; type: cell-based, Staphylococcus aureus
[2] = system: Staphylococcus epidermidis isolates; assay: microbe, parasite or virus in culture; type: cell-based
[3] = system: MRSA isolates SA LL 06 and TCH 1516; assay: Kill kinetics against stationary-phase MRSA; type: cell-based, Staphylococcus aureus; settings: shaking, 37°C
Method: MRSA isolates, TCH 1516 and SA LL 06, were grown to the stationary phase, and the rate of bacterial killing was determined. Frozen bacterial stocks were streaked onto TSA plates and grown overnight. A single colony was selected and incubated overnight in LB broth at 37°C with constant orbital shaking at 200 RPM. Next, bacterial suspension was washed twice with 150 mM sodium chloride and resuspended in MH broth at a concentration of 1.2E9 CFU/mL. […] Glass tubes containing 5 mL of bacteria and drug solutions were grown in a shaking incubator at 37°C. At 0, 4, 8, and 24 hours, bacterial suspensions were collected, serially diluted, and plated onto a blood agar plate. Bacteria were allowed to grow for 24 hours and were enumerated to yield colony-forming units per milliliter.

[4] = system: MRSA isolate SAD05 biofilms; type: cell-based, Staphylococcus aureus; settings: 72-hour biofilms of SAD05, MBEC assay
[5] = system: MRSA isolate TCH 1516; assay: Single-step resistance development; type: cell-based, Staphylococcus aureus
Method: For the single-step study, bacteria were grown to the stationary phase as described above. Bacteria at a concentration of 1E9 CFU were then plated onto C59 and vancomycin-loaded plates containing 1×, 2×, 4×, and 8× MIC concentrations of the therapeutic agents with 1% DMSO. Bacteria were incubated at 37°C for 48 hours, and colony counts were enumerated to calculate the frequency of resistance development, as described in the literature ([45], [46]).

[6] = system: MRSA isolate TCH 1516; assay: Resistance acquisition during serial passage; type: cell-based, Staphylococcus aureus; settings: serial passage, within 7 days, stable thereafter
Method: MRSA isolate TCH 1516 was grown to the stationary phase (OD650 = 1.0) in 10 mL of MH broth. […] The second highest drug concentration resulting in bacterial growth (OD650 >1.0) was used as the inoculum after a 1:1,000 dilution for subsequent steps, every 24 hours, for up to 21 days.

[7] = pH and Ka of 10-g/L aqueous solutions (pH meter); type: physicochemical; settings: 10-g/L solution in distilled, deionized water, room temperature
[8] = Staphylococcus aureus, MRSA, 39 evaluated MRSA isolates, CLSI broth microdilution
[9] = Staphylococcus aureus, MRSA, pH 5.5, MRSA 0606, pH 5.5
[10] = Staphylococcus aureus, MRSA, pH 5.5, MRSA 0608, pH 5.5
[11] = Staphylococcus aureus, MRSA, pH 5.5, MRSA 0634, pH 5.5
[12] = Staphylococcus aureus, MRSA, pH 5.5, MRSA 0641, pH 5.5
[13] = Staphylococcus aureus, MRSA, pH 5.5, MRSA 0646, pH 5.5
[14] = Staphylococcus aureus, MRSA, pH 5.5, TCH 1516, pH 5.5
[15] = Staphylococcus aureus, MRSA, pH 6.5, MRSA 0606, pH 6.5
[16] = Staphylococcus aureus, MRSA, pH 6.5, MRSA 0608, pH 6.5
[17] = Staphylococcus aureus, MRSA, pH 6.5, MRSA 0634, pH 6.5
[18] = Staphylococcus aureus, MRSA, pH 6.5, MRSA 0641, pH 6.5
[19] = Staphylococcus aureus, MRSA, pH 6.5, MRSA 0646, pH 6.5
[20] = Staphylococcus aureus, MRSA, pH 6.5, TCH 1516, pH 6.5
[21] = Staphylococcus aureus, MRSA, read-out: MBC90, 39 evaluated MRSA isolates, CLSI broth microdilution
[22] = 21 Staphylococcus epidermidis isolates
[23] = Staphylococcus aureus, MRSA, pH 7.4, MRSA 0606, pH 7.4
[24] = Staphylococcus aureus, MRSA, pH 7.4, MRSA 0608, pH 7.4
[25] = Staphylococcus aureus, MRSA, pH 7.4, MRSA 0634, pH 7.4
[26] = Staphylococcus aureus, MRSA, pH 7.4, MRSA 0641, pH 7.4
[27] = Staphylococcus aureus, MRSA, pH 7.4, MRSA 0646, pH 7.4
[28] = Staphylococcus aureus, MRSA, pH 7.4, TCH 1516, pH 7.4

With `CN[C@H](CC(C)C)C(=O)N[C@H]1C(=O)N[C@@H](CC(N)=O)C(=O)N[C@H]2C(=O)N[C@H]3C(=O)N[C@H](C(=O)N[C@H](C(=O)O)c4cc(O)cc(O)c4-c4cc3ccc4O)[C@H](O)c3ccc(c(Cl)c3)Oc3cc2cc(c3O[C@@H]2O[C@H](CO)[C@@H](O)[C@H](O)[C@H]2O[C@H]2C[C@](C)(N)[C@H](O)[C@H](C)O2)Oc2ccc(cc2Cl)[C@H]1O` [Vancomycin, vancomycin, reference compound] the MBC ([1]; MRSA 0606, pH 7.4) was 2 µg/mL (≈ 1.38 µM), the MIC ([1]; MRSA 0606, pH 7.4) was 2 µg/mL (≈ 1.38 µM) and the MBC ([1]; MRSA 0608, pH 7.4) was 6 µg/mL (≈ 4.14 µM). It also gave an MIC ([1]; MRSA 0608, pH 7.4) of 2 µg/mL (≈ 1.38 µM), an MBC ([1]; MRSA 0634, pH 7.4) of 6 µg/mL (≈ 4.14 µM) and an MIC ([1]; MRSA 0634, pH 7.4) of 2 µg/mL (≈ 1.38 µM). It also gave an MBC ([1]; MRSA 0641, pH 7.4) of 4 µg/mL (≈ 2.76 µM), an MIC ([1]; MRSA 0641, pH 7.4) of 1 µg/mL (≈ 0.69 µM) and an MBC ([1]; MRSA 0646, pH 7.4) of 6 µg/mL (≈ 4.14 µM). The MIC ([1]; MRSA 0646, pH 7.4) was 2 µg/mL (≈ 1.38 µM), the MIC90 [1, 8] was 2 µg/mL (≈ 1.38 µM) and the MIC ([1]; Staphylococcus aureus, MRSA, SA LL 06, as given for the kill kinetic assay) was 1 µg/mL (≈ 0.69 µM). It also gave an MIC ([1]; Staphylococcus aureus, MRSA, TCH 1516, as given for the kill kinetic assay) of 4 µg/mL (≈ 2.76 µM), an MBC [1, 9] of 2 µg/mL (≈ 1.38 µM) and an MIC [1, 9] of 2 µg/mL (≈ 1.38 µM). The MBC [1, 10] was 4 µg/mL (≈ 2.76 µM), the MIC [1, 10] was 4 µg/mL (≈ 2.76 µM) and the MBC [1, 11] was 8 µg/mL (≈ 5.52 µM). For the same compound, the MIC [1, 11] was 2 µg/mL (≈ 1.38 µM), the MBC [1, 12] was 2 µg/mL (≈ 1.38 µM) and the MIC [1, 12] was 2 µg/mL (≈ 1.38 µM). It also gave an MBC [1, 13] of 8 µg/mL (≈ 5.52 µM), an MIC [1, 13] of 2 µg/mL (≈ 1.38 µM) and an MBC [1, 14] of 4 µg/mL (≈ 2.76 µM). The MIC [1, 14] was 2 µg/mL (≈ 1.38 µM), the MBC ([1]; Staphylococcus aureus, MRSA, pH 5.5, read-out: Average MBC, average of six MRSA isolates, pH 5.5) was 4.7 µg/mL (≈ 3.24 µM) and the MIC ([1]; Staphylococcus aureus, MRSA, pH 5.5, read-out: Average MIC, average of six MRSA isolates, pH 5.5) was 2.3 µg/mL (≈ 1.59 µM). The MBC [1, 15] was 4 µg/mL (≈ 2.76 µM), the MIC [1, 15] was 1 µg/mL (≈ 0.69 µM) and the MBC [1, 16] was 2 µg/mL (≈ 1.38 µM). It also gave an MIC [1, 16] of 2 µg/mL (≈ 1.38 µM), an MBC [1, 17] of 4 µg/mL (≈ 2.76 µM) and an MIC [1, 17] of 2 µg/mL (≈ 1.38 µM). It also gave an MBC [1, 18] of 2 µg/mL (≈ 1.38 µM), an MIC [1, 18] of 1 µg/mL (≈ 0.69 µM) and an MBC [1, 19] of 2 µg/mL (≈ 1.38 µM). It also gave an MIC [1, 19] of 2 µg/mL (≈ 1.38 µM), an MBC [1, 20] of 2 µg/mL (≈ 1.38 µM) and an MIC [1, 20] of 1 µg/mL (≈ 0.69 µM). It also gave an MBC ([1]; Staphylococcus aureus, MRSA, pH 6.5, read-out: Average MBC, average of six MRSA isolates, pH 6.5) of 2.3 µg/mL (≈ 1.59 µM), an MIC ([1]; Staphylococcus aureus, MRSA, pH 6.5, read-out: Average MIC, average of six MRSA isolates, pH 6.5) of 1.5 µg/mL (≈ 1.04 µM) and an MBC ([1]; Staphylococcus aureus, MRSA, pH 7.4, read-out: Average MBC, average of six MRSA isolates, pH 7.4) of 4.2 µg/mL (≈ 2.9 µM). It also gave an MIC ([1]; Staphylococcus aureus, MRSA, pH 7.4, read-out: Average MIC, average of six MRSA isolates, pH 7.4) of 1.7 µg/mL (≈ 1.17 µM), an MBC [1, 21] of 16 µg/mL (≈ 11 µM) and an MBC ([1]; TCH 1516, pH 7.4) of 1 µg/mL (≈ 0.69 µM). The MIC ([1]; TCH 1516, pH 7.4) was 1 µg/mL (≈ 0.69 µM), the “change of MIC and MBC with the reduction in pH” value ([1]; six MRSA isolates, pH lowered to 5.5) was “increased” and the MBC range [2, 22] was 2 to 16 µg/mL. The MIC range [2, 22] was 1 to 8 µg/mL, the MIC90 ([2]; Staphylococcus epidermidis) was 4 µg/mL (≈ 2.76 µM) and the MBC ([2]; Staphylococcus epidermidis, read-out: MBC90) was 8 µg/mL (≈ 5.52 µM). For the same compound, the “bacterial killing after 24 hours” value ([3]; stationary-phase SA LL 06, C59 at 1× and 2× MIC) was “complete lack of bacterial inhibition”, the “bacterial killing after 24 hours” value ([3]; stationary-phase TCH 1516) was “significantly higher bacterial burden” and the “concentration that completely eradicated biofilms” value [4] was “did not demonstrate activity against MRSA biofilms”. For the same compound, the “frequency of resistance acquisition” value ([5]; TCH 1516, 2× MIC) was 1.83 × 10^−8 ± 7.10 × 10^−9, the “frequency of resistance acquisition” value ([5]; TCH 1516, 4× MIC) was 1.56 × 10^−9 ± 7.12 × 10^−10 and the “frequency of resistance acquisition” value ([5]; TCH 1516, 8× MIC) was 5.77 × 10^−10 ± 2.77 × 10^−10. The “growth on drug-loaded plates” value ([5]; TCH 1516 stationary phase, C59 as low as 2× MIC, vancomycin up to 8× MIC) was “bacterial growth was observed” and the “initial increase in MIC” value [6] was “sixfold”.
With `CCCCCCCCCC(=O)N[C@@H](Cc1c[nH]c2ccccc12)C(=O)N[C@H](CC(N)=O)C(=O)N[C@@H](CC(=O)O)C(=O)N[C@@H]1C(=O)NCC(=O)N[C@@H](CCCN)C(=O)N[C@@H](CC(=O)O)C(=O)N[C@H](C)C(=O)N[C@@H](CC(=O)O)C(=O)NCC(=O)N[C@H](CO)C(=O)N[C@@H]([C@H](C)CC(=O)O)C(=O)N[C@@H](CC(=O)c2ccccc2N)C(=O)O[C@@H]1C` [Daptomycin, daptomycin, reference compound] the MBC ([1]; Staphylococcus aureus, 39 evaluated MRSA isolates, CLSI broth microdilution, read-out: MBC90) was 2 µg/mL (≈ 1.23 µM) and the MIC90 ([1]; Staphylococcus aureus, 39 evaluated MRSA isolates, CLSI broth microdilution, read-out: MIC90) was 2 µg/mL (≈ 1.23 µM).
With `[K+].[K+].[O-]c1c(Cl)cc(Cl)cc1-c1cc(Cl)cc(Cl)c1[O-]` [C59K] the pH of solution [7] was “greater than 10”, the MIC90 [1, 8] was 2 µg/mL and the MBC [1, 23] was 6 µg/mL. For the same compound, the MIC [1, 23] was 2 µg/mL, the MBC [1, 24] was 4 µg/mL and the MIC [1, 24] was 4 µg/mL. The MBC [1, 25] was 6 µg/mL, the MIC [1, 25] was 2 µg/mL and the MBC [1, 26] was 4 µg/mL. It also gave an MIC [1, 26] of 2 µg/mL, an MBC [1, 27] of 4 µg/mL and an MIC [1, 27] of 2 µg/mL. For the same compound, the MBC [1, 28] was 4 µg/mL, the MIC [1, 28] was 2 µg/mL and the MBC [1, 21] was 4 µg/mL.
